Laboratory results from patent publication US20260325533A1, “CDK INHIBITOR COMPOUNDS” (ALEKSIA THERAPEUTICS, INC., priority 2023, published 2026).
Where two headings read alike, the source gives them in different places.

Legend:
Type in all cases: biochemical
CDK2/CCNE1 = CDK2/CCNE1 (Homo sapiens, UniProt P24941); assay: CDK2 homogeneous time-resolved fluorescence (HTRF) kinase assay; settings: CDK2/CCNE
Procedure, shortened: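 3 nM CDK2/CCNE1 was preincubated with compound for 20 min at 23 °C in HEPES buffer (pH not stated), then reacted 60 min with 1 mM ATP and 50 nM ULight-4E-BP1 (Thr37/46) peptide. After EDTA stop, Eu-anti-phospho-4E-BP1 antibody (2 nM) was added for 60 min and TR-FRET read at 665 nm.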

CDK1/CCNB1 = CDK1/CCNB1 (Homo sapiens, UniProt P06493); assay: CDK1 homogeneous time-resolved fluorescence (HTRF) kinase assay; settings: CDK1/CCNB
CDK1/CCNB1, sequence (P06493 whole entry): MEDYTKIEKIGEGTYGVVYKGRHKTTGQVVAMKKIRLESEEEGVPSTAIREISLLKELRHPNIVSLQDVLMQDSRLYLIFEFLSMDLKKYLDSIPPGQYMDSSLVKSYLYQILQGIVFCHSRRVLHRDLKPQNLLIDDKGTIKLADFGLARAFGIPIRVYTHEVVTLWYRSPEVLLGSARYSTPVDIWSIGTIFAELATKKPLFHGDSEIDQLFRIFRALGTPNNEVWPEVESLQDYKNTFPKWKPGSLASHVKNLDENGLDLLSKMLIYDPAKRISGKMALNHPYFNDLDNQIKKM
CDK1/CCNB1, sequence (P14635 whole entry partner): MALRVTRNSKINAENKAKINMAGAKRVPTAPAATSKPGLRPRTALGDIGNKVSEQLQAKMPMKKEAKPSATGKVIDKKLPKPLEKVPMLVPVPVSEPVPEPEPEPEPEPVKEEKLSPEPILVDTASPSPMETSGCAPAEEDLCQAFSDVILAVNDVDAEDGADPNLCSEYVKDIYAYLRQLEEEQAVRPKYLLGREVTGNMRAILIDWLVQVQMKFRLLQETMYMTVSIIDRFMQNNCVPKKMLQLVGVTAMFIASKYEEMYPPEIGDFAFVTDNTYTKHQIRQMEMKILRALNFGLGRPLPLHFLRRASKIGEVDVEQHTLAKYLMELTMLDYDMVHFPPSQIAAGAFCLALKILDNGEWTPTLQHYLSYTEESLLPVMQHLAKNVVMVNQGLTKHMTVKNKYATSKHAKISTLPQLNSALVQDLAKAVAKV
Procedure, shortened: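 Kinase activity is measured as Lance signal (665 nm, or 665/615 nm ratio) from europium-labelled anti-phospho-Thr37/46 antibody binding ULight-4E-BP1 peptide. Reactions contain 0.5 nM enzyme, 1 mM ATP, 1% DMSO and run 60 min at 23 °C before EDTA quench.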

CDK4/CCND3 = CDK4/CCND3 (Homo sapiens, UniProt P11802); assay: CDK4 homogeneous time-resolved fluorescence (HTRF) kinase assay; settings: CDK4/CCND
CDK4/CCND3, sequence (P11802 whole entry): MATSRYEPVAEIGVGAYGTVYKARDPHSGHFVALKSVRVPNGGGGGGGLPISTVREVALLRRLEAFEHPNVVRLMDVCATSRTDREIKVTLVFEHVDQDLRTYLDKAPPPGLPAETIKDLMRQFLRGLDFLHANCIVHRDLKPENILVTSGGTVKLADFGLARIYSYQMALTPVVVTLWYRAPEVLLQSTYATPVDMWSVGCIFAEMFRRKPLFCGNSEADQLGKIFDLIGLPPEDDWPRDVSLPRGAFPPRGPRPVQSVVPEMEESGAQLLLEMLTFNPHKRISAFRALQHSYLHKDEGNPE
CDK4/CCND3, sequence (P30281 whole entry partner): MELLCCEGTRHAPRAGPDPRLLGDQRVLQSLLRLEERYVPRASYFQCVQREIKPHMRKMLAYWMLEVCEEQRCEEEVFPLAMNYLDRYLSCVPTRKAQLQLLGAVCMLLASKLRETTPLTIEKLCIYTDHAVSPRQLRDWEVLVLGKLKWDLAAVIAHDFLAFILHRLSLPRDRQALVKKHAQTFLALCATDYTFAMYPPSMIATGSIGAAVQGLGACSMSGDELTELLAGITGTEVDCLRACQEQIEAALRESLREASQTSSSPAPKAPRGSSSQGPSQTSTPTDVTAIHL
Procedure, shortened: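 Compounds were preincubated with 1.5 nM CDK4/CCND3 for 20 min at 23 °C in HEPES buffer (pH not given), then reacted 60 min with 1 mM ATP and 50 nM ULight-4E-BP1 (Thr37/46) peptide. EDTA stop, Eu-anti-phospho-4E-BP1 detection; 665/615 nm ratio; IC50 from 11-point half-log titrations from 10 μM.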

CDK6/CCND1 = CDK6/CCND1 (Homo sapiens, UniProt Q00534); assay: CDK6 homogeneous time-resolved fluorescence (HTRF) kinase assay; settings: CDK6/CCND
CDK6/CCND1, sequence (Q00534 whole entry): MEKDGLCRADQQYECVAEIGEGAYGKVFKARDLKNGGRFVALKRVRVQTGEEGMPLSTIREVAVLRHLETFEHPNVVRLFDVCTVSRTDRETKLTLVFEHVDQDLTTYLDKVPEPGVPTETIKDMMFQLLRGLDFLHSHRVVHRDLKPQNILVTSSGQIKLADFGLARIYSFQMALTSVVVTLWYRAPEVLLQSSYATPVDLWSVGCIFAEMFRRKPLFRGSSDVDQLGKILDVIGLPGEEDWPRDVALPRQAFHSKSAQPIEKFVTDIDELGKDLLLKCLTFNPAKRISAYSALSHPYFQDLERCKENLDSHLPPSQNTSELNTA
CDK6/CCND1, sequence (P24385 whole entry partner): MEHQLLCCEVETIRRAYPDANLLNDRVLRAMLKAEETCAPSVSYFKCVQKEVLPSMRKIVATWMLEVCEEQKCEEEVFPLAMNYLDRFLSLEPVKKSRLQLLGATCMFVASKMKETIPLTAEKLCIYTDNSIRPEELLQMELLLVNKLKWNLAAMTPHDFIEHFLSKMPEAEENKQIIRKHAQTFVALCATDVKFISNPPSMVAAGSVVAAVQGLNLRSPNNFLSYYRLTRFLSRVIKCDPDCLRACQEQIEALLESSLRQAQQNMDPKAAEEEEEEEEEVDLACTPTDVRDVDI
Procedure, shortened: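 1 nM enzyme, 1 mM ATP, 50 nM ULight-4E-BP1 (Thr37/46) peptide, 1% DMSO; 20 min compound preincubation, 60 min reaction, 23 °C. EDTA stop, 2 nM Eu-anti-phospho-4E-BP1 antibody 60 min. TR-FRET 665 nm (or 665/615 ratio); IC50 from 11-point half-log titration, top 10 μM.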

[1] = x = IC50 >250 nM, read-out: CDK1/CCNB IC50 (>250 nM column)
[2] = x = IC50 >250 nM, read-out: CDK4/CCND IC50 (>250 nM column)
[3] = x = IC50 <25 nM, read-out: CDK2/CCNE IC50 (<25 nM)
[4] = x = IC50 25-250 nM, read-out: CDK4/CCND IC50 (25-250 nM)
[5] = x = IC50 25-250 nM, read-out: CDK6/CCND IC50 (25-250 nM)
[6] = x = IC50 25-250 nM, read-out: CDK1/CCNB IC50 (25-250 nM)
[7] = <25 nM, read-out: CDK2/CCNE IC50 <25 nM
[8] = 25-250 nM marked x, read-out: CDK1/CCNB IC50 25-250 nM
[9] = <25 nM, read-out: CDK4/CCND IC50 <25 nM
[10] = <25 nM, read-out: CDK6/CCND IC50 <25 nM
[11] = 25-250 nM marked x, read-out: CDK2/CCNE IC50 25-250 nM
[12] = >250 nM marked x, read-out: CDK1/CCNB IC50 >250 nM
[13] = 25-250 nM marked x, read-out: CDK4/CCND IC50 25-250 nM
[14] = 25-250 nM marked x, read-out: CDK6/CCND IC50 25-250 nM

| SMILES | IC50 (CDK2/CCNE1; [7]) [nM] | IC50 (CDK1/CCNB1; [8]) [nM] | IC50 (CDK4/CCND3; [9]) [nM] | IC50 (CDK6/CCND1; [10]) [nM] | IC50 (CDK2/CCNE1; [11]) [nM] | IC50 (CDK1/CCNB1; [12]) [nM] | IC50 (CDK4/CCND3; [13]) [nM] | IC50 (CDK6/CCND1; [14]) [nM] | other results |
| --- | --- | --- | --- | --- | --- | --- | --- | --- | --- |
| CC1NCCc2cc(-c3nccc4cnc(Nc5ccc(S(C)(=O)=O)cc5)cc34)ccc21 (single isomer, unassigned) [Example 599, 5-(1-methyl-1,2,3,4-tetrahydroisoquinolin-6-yl)-N-(4-(methylsulfonyl)phenyl)-2,6-naphthyridin-3-amine] | – | – | – | – | – | – | – | – | IC50 (CDK2/CCNE1; x = IC50 25-250 nM, read-out: CDK2/CCNE IC50 (25-250 nM)): 25 to 250 nM; IC50 (CDK1/CCNB1; [1]): > 250 nM; IC50 (CDK4/CCND3; [2]): > 250 nM; IC50 (CDK6/CCND1; x = IC50 >250 nM, read-out: CDK6/CCND IC50 (>250 nM column)): > 250 nM |
| Cc1c(-c2nccc3cnc(Nc4ccc(S(C)(=O)=O)cc4)cc23)ccc2c1cnn2CC(C)O (single isomer, unassigned) [Example 614, 1-(4-methyl-5-(7-((4-(methylsulfonyl)phenyl)amino)-2,6-naphthyridin-1-yl)-1H-indazol-1-yl)propan-2-ol] | – | – | – | – | – | – | – | – | IC50 (CDK2/CCNE1; [3]): < 25 nM; IC50 (CDK1/CCNB1; [1]): > 250 nM; IC50 (CDK4/CCND3; [4]): 25 to 250 nM; IC50 (CDK6/CCND1; [5]): 25 to 250 nM |
| CC1(O)C=C(c2nccc3cnc(Nc4ccc(S(C)(=O)=O)cc4)cc23)CCC1 (single isomer, unassigned) [Example 625, 1-methyl-3-(7-((4-(methylsulfonyl)phenyl)amino)-2,6-naphthyridin-1-yl)cyclohex-2-en-1-ol] | – | – | – | – | – | – | – | – | IC50 (CDK2/CCNE1; [3]): < 25 nM; IC50 (CDK1/CCNB1; [6]): 25 to 250 nM; IC50 (CDK4/CCND3; [2]): > 250 nM; IC50 (CDK6/CCND1; [5]): 25 to 250 nM |
| Cc1c(-c2nccc3cnc(Nc4ccc(S(C)(=O)=O)cc4)cc23)ccc2c1cnn2CC(C)(C)O (single isomer, unassigned) [Example 674, 2-methyl-1-(4-methyl-5-(7-((4-(methylsulfonyl)phenyl)amino)-2,6-naphthyridin-1-yl)-1H-indazol-1-yl)propan-2-ol] | – | – | – | – | – | – | – | – | IC50 (CDK2/CCNE1; [3]): < 25 nM; IC50 (CDK1/CCNB1; [6]): 25 to 250 nM; IC50 (CDK4/CCND3; [4]): 25 to 250 nM; IC50 (CDK6/CCND1; [5]): 25 to 250 nM |
| CS(=O)(=O)N1CCC(Nc2cc3c(N4CCCCC4)nccc3cn2)CC1 [Ex 27, N-(1-(methylsulfonyl)piperidin-4-yl)-5-(piperidin-1-yl)-2,6-naphthyridin-3-amine] | < 25 | 25 to 250 | < 25 | < 25 | – | – | – | – | – |
| CN1CCC(C2CCN(c3nccc4cnc(NC5CCN(S(C)(=O)=O)CC5)cc34)CC2)CC1 [Ex 28, 5-(1'-methyl-[4,4'-bipiperidin]-1-yl)-N-(1-(methylsulfonyl)piperidin-4-yl)-2,6-naphthyridin-3-amine] | – | – | – | < 25 | 25 to 250 | > 250 | 25 to 250 | – | – |
| CN1CCN(c2nccc3cnc(NC4CCN(S(C)(=O)=O)CC4)cc23)CC1 [Ex 29, 5-(4-methylpiperazin-1-yl)-N-(1-(methylsulfonyl)piperidin-4-yl)-2,6-naphthyridin-3-amine] | – | – | < 25 | < 25 | 25 to 250 | > 250 | – | – | – |
| CC(C)N(C)c1nccc2cnc(NC3CCN(S(C)(=O)=O)CC3)cc12 [Ex 35, N1-isopropyl-N1-methyl-N7-(1-(methylsulfonyl)piperidin-4-yl)-2,6-naphthyridine-1,7-diamine] | < 25 | 25 to 250 | – | – | – | – | 25 to 250 | 25 to 250 | – |
| CS(=O)(=O)N1CCC(Nc2cc3c(N4CC5(CC(O)C5)C4)nccc3cn2)CC1 [Ex 36, 2-(7-((1-(methylsulfonyl)piperidin-4-yl)amino)-2,6-naphthyridin-1-yl)-2-azaspiro[3.3]heptan-6-ol] | < 25 | 25 to 250 | – | – | – | – | 25 to 250 | 25 to 250 | – |
| CS(=O)(=O)N1CCC(Nc2cc3c(N4CCC(C#N)CC4)nccc3cn2)CC1 [Ex 37, 1-(7-((1-(methylsulfonyl)piperidin-4-yl)amino)-2,6-naphthyridin-1-yl)piperidine-4-carbonitrile] | < 25 | – | – | – | – | > 250 | 25 to 250 | 25 to 250 | – |
| CS(=O)(=O)N1CCC(Nc2cc3c(N4CCC(CO)CC4)nccc3cn2)CC1 [Ex 41, (1-(7-((1-(methylsulfonyl)piperidin-4-yl)amino)-2,6-naphthyridin-1-yl)piperidin-4-yl)methanol] | < 25 | – | < 25 | < 25 | – | > 250 | – | – | – |
| CS(=O)(=O)N1CCC(Nc2cc3c(N4CC(C#N)C4)nccc3cn2)CC1 [Ex 43, 1-(7-((1-(methylsulfonyl)piperidin-4-yl)amino)-2,6-naphthyridin-1-yl)azetidine-3-carbonitrile] | < 25 | – | – | – | – | > 250 | 25 to 250 | 25 to 250 | – |
| CN(c1nccc2cnc(NC3CCN(S(C)(=O)=O)CC3)cc12)C1CCCCC1 [Ex 44, N1-cyclohexyl-N1-methyl-N7-(1-(methylsulfonyl)piperidin-4-yl)-2,6-naphthyridine-1,7-diamine] | < 25 | 25 to 250 | – | – | – | – | 25 to 250 | 25 to 250 | – |
| CN(c1nccc2cnc(NC3CCN(S(C)(=O)=O)CC3)cc12)C1CC1 [Ex 46, N1-cyclopropyl-N1-methyl-N7-(1-(methylsulfonyl)piperidin-4-yl)-2,6-naphthyridine-1,7-diamine] | – | – | – | – | 25 to 250 | > 250 | 25 to 250 | 25 to 250 | – |
| CS(=O)(=O)N1CCC(Nc2cc3c(N4CCC(F)(F)CC4)nccc3cn2)CC1 [Ex 47, 5-(4,4-difluoropiperidin-1-yl)-N-(1-(methylsulfonyl)piperidin-4-yl)-2,6-naphthyridin-3-amine] | – | 25 to 250 | < 25 | < 25 | 25 to 250 | – | – | – | – |
| CS(=O)(=O)N1CCC(Nc2cc3c(N4CCNC(=O)C4)nccc3cn2)CC1 [Ex 48, 4-(7-((1-(methylsulfonyl)piperidin-4-yl)amino)-2,6-naphthyridin-1-yl)piperazin-2-one] | – | – | < 25 | < 25 | 25 to 250 | > 250 | – | – | – |
| CN(C)C1CCN(c2nccc3cnc(NC4CCN(S(C)(=O)=O)CC4)cc23)CC1 [Ex 49, 5-(4-(dimethylamino)piperidin-1-yl)-N-(1-(methylsulfonyl)piperidin-4-yl)-2,6-naphthyridin-3-amine] | – | – | – | – | 25 to 250 | > 250 | 25 to 250 | 25 to 250 | – |
| COC1CCN(c2nccc3cnc(NC4CCN(S(C)(=O)=O)CC4)cc23)CC1 [Ex 50, 5-(4-methoxypiperidin-1-yl)-N-(1-(methylsulfonyl)piperidin-4-yl)-2,6-naphthyridin-3-amine] | – | – | – | < 25 | 25 to 250 | > 250 | 25 to 250 | – | – |
| CS(=O)(=O)N1CCC(Nc2cc3c(N4CC(O)C4)nccc3cn2)CC1 [Ex 51, 1-(7-((1-(methylsulfonyl)piperidin-4-yl)amino)-2,6-naphthyridin-1-yl)azetidin-3-ol] | – | – | – | < 25 | 25 to 250 | > 250 | 25 to 250 | – | – |
| CS(=O)(=O)N1CCC(Nc2cc3c(-c4ccc5[nH]ccc5c4)nccc3cn2)CC1 [Ex 63, 5-(1H-indol-5-yl)-N-(1-(methylsulfonyl)piperidin-4-yl)-2,6-naphthyridin-3-amine] | < 25 | 25 to 250 | < 25 | < 25 | – | – | – | – | – |
| CS(=O)(=O)N1CCC(Nc2cc3c(-c4cccc(CO)c4)nccc3cn2)CC1 [Ex 64, (3-(7-((1-(methylsulfonyl)piperidin-4-yl)amino)-2,6-naphthyridin-1-yl)phenyl)methanol] | < 25 | 25 to 250 | < 25 | < 25 | – | – | – | – | – |
| CS(=O)(=O)N1CCC(Nc2cc3c(-c4ccc(O)cc4)nccc3cn2)CC1 [Ex 68, 4-(7-((1-(methylsulfonyl)piperidin-4-yl)amino)-2,6-naphthyridin-1-yl)phenol] | < 25 | – | – | < 25 | – | > 250 | 25 to 250 | – | – |
